Measured values from ChEMBL document CHEMBL5120924 (J Nat Prod, 2022).

What was measured:
OVCAR-3 = test: Cytotoxicity against human OVCAR-3 cells assessed as reduction in cell viability measured after 72 hrs by celltiter-blue cell viability assay; type: functional, cell-based; settings: OVCAR-3, 72 h
MDA-MB-435 = test: Cytotoxicity against human MDA-MB-435 cells assessed as reduction in cell viability measured after 72 hrs by celltiter-blue cell viability assay; type: functional, cell-based; settings: MDA-MB-435, 72 h

| SMILES | IC50 (OVCAR-3) | IC50 (MDA-MB-435) |
| --- | --- | --- |
| COc1cc(O)c2c(c1)[C@H]1O[C@@H]1C[C@H](OC(=O)CCC(=O)O)[C@H](O)C(=O)/C=C\C[C@H](C)OC2=O | 1.7 µM | 1.7 µM |
| COc1cc(O)c2c(c1)[C@H]1O[C@@H]1C[C@H](OC(=O)/C=C\C(=O)O)[C@H](OC(=O)/C=C\C(=O)O)C(=O)/C=C\C[C@H](C)OC2=O | 1.7 µM | 1.7 µM |
| C=CCOC(=O)O[C@H]1C[C@H]2O[C@@H]2c2cc(OC)cc(O)c2C(=O)O[C@@H](C)C/C=C\C(=O)[C@H]1O | 1.7 µM | 1.7 µM |
| COc1cc(O)c2c(c1)[C@H]1O[C@@H]1C[C@H](OC(C)=O)[C@H](O)C(=O)/C=C\C[C@H](C)OC2=O | 1.7 µM | 1.7 µM |
| COc1cc(O)c2c(c1)[C@H]1O[C@@H]1C[C@H](O)[C@H](OC(C)=O)C(=O)/C=C\C[C@H](C)OC2=O | 1.7 µM | 1.7 µM |
| COC(=O)O[C@@H]1C(=O)/C=C\C[C@H](C)OC(=O)c2c(O)cc(OC)cc2[C@H]2O[C@@H]2C[C@@H]1O | 1.7 µM | 1.7 µM |
| C=CCOC(=O)O[C@@H]1C(=O)/C=C\C[C@H](C)OC(=O)c2c(O)cc(OC)cc2[C@H]2O[C@@H]2C[C@@H]1O | 1.7 µM | 1.7 µM |
| COc1cc(O)c2c(c1)[C@H]1O[C@@H]1C[C@H](O)[C@H](O)C(=O)/C=C\C[C@H](C)OC2=O [HYPOTHEMYCIN] | 2.6 µM | 1.9 µM |
| COC(=O)O[C@H]1C[C@H]2O[C@@H]2c2cc(OC)cc(O)c2C(=O)O[C@@H](C)C/C=C\C(=O)[C@H]1O | 1.7 µM | 1.7 µM |
| CCOC(=O)O[C@H]1C[C@H]2O[C@@H]2c2cc(OC)cc(O)c2C(=O)O[C@@H](C)C/C=C\C(=O)[C@H]1O | 1.7 µM | 1.7 µM |
| COc1cc(O)c2c(c1)[C@H]1O[C@@H]1C[C@H](OC(=O)/C=C\C(=O)O)[C@H](O)C(=O)/C=C\C[C@H](C)OC2=O | 1.7 µM | 1.7 µM |
